Test results from paper PMC11062922 (Nature Chemical Biology, 2023).

Tests used:
BMPR2 = molecular target: T1, BMPR2 (Homo sapiens, UniProt Q13873); assay: Kinobeads two-dose competition binding: BMPR2; settings: for CATDS: target BMPR2
T1 construct: to maximize the representation of endogenous proteins; endogenous in cells
T1 sequence (Q13873 27-1038): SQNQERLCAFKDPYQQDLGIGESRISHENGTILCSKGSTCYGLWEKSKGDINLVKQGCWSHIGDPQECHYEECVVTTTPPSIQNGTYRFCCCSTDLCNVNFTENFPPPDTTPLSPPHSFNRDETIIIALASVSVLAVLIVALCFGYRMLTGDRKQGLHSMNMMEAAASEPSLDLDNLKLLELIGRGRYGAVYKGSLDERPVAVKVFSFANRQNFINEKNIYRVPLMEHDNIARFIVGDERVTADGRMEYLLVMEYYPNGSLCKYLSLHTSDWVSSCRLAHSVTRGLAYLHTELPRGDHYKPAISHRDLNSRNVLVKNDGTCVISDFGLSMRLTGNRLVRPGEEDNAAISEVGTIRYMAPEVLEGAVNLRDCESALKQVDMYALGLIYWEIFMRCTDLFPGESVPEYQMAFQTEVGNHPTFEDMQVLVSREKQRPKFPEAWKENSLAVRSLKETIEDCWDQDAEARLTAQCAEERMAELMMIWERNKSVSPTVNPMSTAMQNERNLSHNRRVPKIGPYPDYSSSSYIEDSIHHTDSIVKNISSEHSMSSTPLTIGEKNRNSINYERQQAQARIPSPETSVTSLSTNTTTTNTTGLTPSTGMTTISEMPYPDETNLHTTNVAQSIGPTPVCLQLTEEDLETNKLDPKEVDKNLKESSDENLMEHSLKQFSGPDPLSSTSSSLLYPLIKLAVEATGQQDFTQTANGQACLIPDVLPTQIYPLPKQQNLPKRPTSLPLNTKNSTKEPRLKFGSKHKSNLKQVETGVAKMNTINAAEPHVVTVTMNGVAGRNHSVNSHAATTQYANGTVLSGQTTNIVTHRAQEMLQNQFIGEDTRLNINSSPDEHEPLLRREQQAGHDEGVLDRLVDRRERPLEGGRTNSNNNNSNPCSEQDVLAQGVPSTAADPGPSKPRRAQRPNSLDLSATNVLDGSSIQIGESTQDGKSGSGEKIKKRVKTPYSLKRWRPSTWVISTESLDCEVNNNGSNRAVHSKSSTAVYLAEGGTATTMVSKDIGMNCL
Text: (§1) Briefly, Kinobeads comprise seven broad-spectrum small molecule kinase inhibitors immobilized on Sepharose beads. […]. Compounds of interest are set to compete for target protein binding with Kinobeads in the lysate and the amount of a given protein bound to Kinobeads in the presence of a compound can be quantified relative to a dimethylsulfoxide (DMSO) vehicle control by label-free mass spectrometry. This assay measures the physical interaction of a compound with thousands of endogenous proteins in parallel and, when systematically increasing the concentration of competitor, enables the calculation of an apparent interaction constant ( Kdapp ) for each compound and protein.
(§2) Kinobeads pulldown experiments were performed as described previously[13],[14],[17] with minor modification. […] The protein concentration was adjusted to 5 mg ml^−1. Kinase inhibitors were spiked into 0.5 ml of cell lysate at final concentrations of 100 and 1,000 nM (or DMSO, 0.3, 1, 3, 10, 30, 100, 300 and 1,000 nM for full dose experiments). […] Lysates were incubated for 45 min at 4 °C. Subsequently, lysates were incubated with Kinobeads ε (17.5 µl of settled beads) for 30 min at 4 °C. To assess the degree of protein depletion from the lysates by Kinobeads, the flow through of the DMSO control was recovered for a pulldown of pulldown experiment where the lysate was incubated a second time with fresh Kinobeads. Beads were washed in three steps with buffer containing 0.4%, 0.2% and no IGEPAL. Bound proteins were reduced with 50 mM DTT in 8 M Urea, 40 mM Tris-HCl pH 7.4 for 30 min at room temperature. After alkylation with 55 mM chloroacetamide, the urea concentration was reduced to 1–2 M and proteins were digested with trypsin. Acidified peptides were desalted and concentrated using SepPak tC18 µEluation plates (Waters). Samples were frozen, dried by vacuum centrifugation and stored at −20 °C.
(§3) Each kinase inhibitor was processed together with all DMSO controls of the same plate. Additionally, each search was supplemented with five high quality DMSO controls for consistent peptide identification and protein grouping. The resultant file (proteinGroups.txt) was used for subsequent filtering, normalization, data visualization and target annotation that was automatically performed by a data processing pipeline built in house that used R (including the ‘drc’ and ‘heatmap’ packages). First, reverse hits, potential contaminants and not quantified proteins in the DMSO control samples were discarded. Protein raw and label-free quantification intensities were normalized to the median DMSO control intensity to obtain relative residual binding intensities for each protein group at every inhibitor concentration and standard deviations of the DMSO control intensity were calculated. IC50 values were estimated based on the following equation IC50=I×100−inhibition/inhibition where [I] is the inhibitor concentration that was used for IC50 calculation and ‘inhibition’ the relative residual binding intensity. […]. Estimated Kdapp values were then calculated by multiplying the estimated IC50 values with a protein-dependent correction factor that was limited to a maximum value of one. The correction factor accounts for the depletion of a target protein from the lysate by Kinobeads. The depletion can be measured by the ratio of the amount of protein captured in two consecutive pulldowns of the same DMSO control lysate. In this study, correction factors were determined in separate experiments using the same lysate mixture and the same bead batch. Correction factors were set to the median of all correction factors. Targets of kinase inhibitors were annotated using the previously published random forest classifier. A training data set was annotated manually. […]

CHECK1 = molecular target: T2, CHECK1 (Homo sapiens, UniProt O14757); assay: Kinobeads two-dose competition binding: CHECK1; settings: for CATDS: target CHEK1
T2 construct: endogenous in cells
T2 sequence (O14757 1-476): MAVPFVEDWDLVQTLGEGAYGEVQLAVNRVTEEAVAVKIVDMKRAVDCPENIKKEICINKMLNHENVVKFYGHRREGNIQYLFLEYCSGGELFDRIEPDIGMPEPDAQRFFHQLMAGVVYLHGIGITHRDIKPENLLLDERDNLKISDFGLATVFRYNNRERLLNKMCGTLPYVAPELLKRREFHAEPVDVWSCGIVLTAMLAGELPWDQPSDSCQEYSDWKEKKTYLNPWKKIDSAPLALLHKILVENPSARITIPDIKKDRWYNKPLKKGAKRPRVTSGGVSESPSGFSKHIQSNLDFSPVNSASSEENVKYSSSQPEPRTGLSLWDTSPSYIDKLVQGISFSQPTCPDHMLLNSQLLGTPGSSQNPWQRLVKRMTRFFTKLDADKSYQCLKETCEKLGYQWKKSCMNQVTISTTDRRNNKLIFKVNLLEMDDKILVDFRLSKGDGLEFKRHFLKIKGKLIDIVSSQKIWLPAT
Text: as §1, §2, §3

`CC(C)N1CC(=O)N(C)c2cnc(Nc3cccc(S(=O)(=O)CCN4CCOCC4)c3)nc21` [BI00009348] was tested, and the potency estimated from few doses (BMPR2; Kinobeads two-dose, Drugmatrix - all 2, read-out: apparent Kd BMPR2) was 646 nM.

With `C[C@]12O[C@H](C[C@]1(O)CO)n1c3ccccc3c3c4c(c5c6ccccc6n2c5c31)CNC4=O` [Lestaurtinib] the potency estimated from few doses (CHECK1; read-out: Lestaurtinib Drugmatrix value, Gene Name CHEK1) was 98 nM.

`Nc1ncnc2[nH]c(-c3ccccc3)nc12` [AH5015_KCGS] was tested, and the CATDS (CHECK1) was 0 and the CATDS (BMPR2) was 0.

Work on `CCc1cc2c(cc1N1CCC(N3CCOCC3)CC1)C(C)(C)c1[nH]c3cc(C#N)ccc3c1C2=O` [Alectinib] yielded a CATDS (CHECK1) of 0 and a CATDS (BMPR2) of 0.

For `CCN1CCN(Cc2ccc(Nc3ncc(F)c(-c4cc(F)c5nc(C)n(C(C)C)c5c4)n3)nc2)CC1` [Abemaciclib], the CATDS (CHECK1) was 0 and the CATDS (BMPR2) was 0.

Molecule `CN(C)C/C=C/C(=O)Nc1cc2c(Nc3ccc(F)c(Cl)c3)ncnc2cc1O[C@H]1CCOC1` [Afatinib] has a CATDS (CHECK1) of 0 and a CATDS (BMPR2) of 0.

Molecule `N#CC1(c2ccc(NC(=O)c3cccnc3NCc3ccncc3)cc2)CCCC1` [Apatinib] has a CATDS (CHECK1) of 0 and a CATDS (BMPR2) of 0.
